Molecules are shown by their SMILES. Where only a bound is given, the exact number is not on record here.

The conditions of data set [1]: in vivo; cited from earlier work.
The conditions of data set [2]: healthy tissue; cited from earlier work.
Data set [3] is described as follows: CT images roughly every 10 min of 20 mL tumescent injections, local fraction of contrast.
Procedure: In a different experiment we took CT images roughly every 10 min instead of every hour in order to see the initially rapid dynamics. An axial cross-sectional image is shown in FIG. 14 before and after two 20 mL tumescent injections on symmetric sides of the anesthetized adult Yucatan pig's abdomen.
The initial rise is due to the spreading of the tumescent fluid after the completion of the injection into unexpanded tissue. […] We verified this by multiplying the total volume and mean curves to get a measure of the “total contrast” that remains localized in the tumescence (FIG. 15 bottom, left). Dividing the total contrast curve by its maximum yields the “Localized Fraction” curves of FIG. 15 (bottom, right).
Data set [4] in a line: CT scans over seven hours of tumescent injections of saline containing iodine contrast. Type of data set: in vivo, Yucatan pig. Here is the method:
To more accurately determine the timescale over which the local antibiotic concentration remains high, we performed CT scans over a long time period.
The figures are CTs viewing the abdomen of the pig with the head towards the top of the figure. Tumescent injections are seen as 4 rows, and 2 columns of large circular white regions, with injection volumes 20 mL, 10 mL, 5 mL and 2.5 mL from top row to bottom. There is one column of 4 tiny white dots along the center of the abdomen that are skin markers placed in the same axial plane as the location of the injections for reference. It is clear that the iodine concentration may remain high for several hours. While the 20 mL injections are clearly visible for 5 hours, the 2.5 mL injections are easily seen for only 3 hours.
Each value along the lineout represents the max attenuation value below that point on a line perpendicular to the surface (Maximum Intensity Projection mode). For comparison, we measured the attenuation of a vial of pure infusate to be 500 HU, and the attenuation of normal subcutaneous tissue to be about −90 HU. A concentration equal to at least half the initial value (or attenuation of […]—half way between the extremes) is maintained for at least 4 hours.

A further data set deals with MRSA strains. The settings on record: 1 g/100 mL cefazolin in tumescent solution; cited from earlier work.

In the case of `CO/N=C(\C(=O)N[C@@H]1C(=O)N2C(C(=O)O)=C(CSc3nc(=O)c(=O)[nH]n3C)CS[C@H]12)c1csc(N)n1` [Ceftriaxone], in data set [1], the “concentration shown to be safe, relative to 1 g/100 mL cefazolin” value was 35 times higher concentrations.
`CNC[C@H](O)c1ccc(O)c(O)c1` [epinephrine]: in data set [2], the “systemic absorption time extended by use of a vasoconstrictor” value was above 8 h.
As for `II` [iodine], the “drop in the local fraction (take-up by lymph and capillaries)” value in data set [3] (over the 70 minutes of the experiment, anesthetized adult Yucatan pig) is on record as around 30%. In data set [3] (tumescent injection, CT), the “timescale of spontaneous spreading” value was below 5 min and the “timescale of take up by the serum” value was around 1 h. Also, the “time for which the injection is easily seen on CT” value in data set [4] (2.5 mL subcutaneous abdominal injection, saline with 2 g/100 mL iodine contrast, healthy adult Yucatan pig) came to 3 h. Also, the “time for which the injection is clearly visible on CT” value in data set [4] (20 mL subcutaneous abdominal injection, saline with 2 g/100 mL iodine contrast, healthy adult Yucatan pig) turned out to be 5 h. Besides, in data set [4] (CT lineouts, maximum intensity projection, attenuation 155 as half way point), the “time for which a concentration of at least half the initial value is maintained” value is listed as “at least 4 hours”.
Consider `Cc1nnc(SCC2=C(C(=O)O)N3C(=O)[C@@H](NC(=O)Cn4cnnn4)[C@H]3SC2)s1` [cefazolin], for which the “concentration relative to the MIC” value in the data set with MRSA strains is given as “above the MIC for most, if not all, MRSA strains”.
